This note sets out measurements from ChEMBL document CHEMBL1201862, “PubChem BioAssay data set” (2004).

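Tested at 5 concentrations; 48 h exposure; 96-well plates; endpoints linearly interpolated, else capped at highest concentration. GI50: concentration for 50% inhibition of growth.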 Activity calls are given as the source filed them. No stated cut-off is given here; in the data, active = GI50 up to about 1.1 µM and inactive = higher.

Test systems include SW-620; MOLT-4; SK-OV-3; SF-268; SK-MEL-2; Hs-578T; OVCAR-5; HT-29; CAKI-1; K562; UACC-62; MCF7; SNB-75; SK-MEL-5; IGROV-1; RPMI-8226; U-251; OVCAR-3; NCI-H460; ACHN.
Test in all cases: DTP human tumour cell line panel, 48 h

By GI50 is commonly meant the concentration that inhibits growth by half. Turning to `CCCC1=NC(C(F)(F)F)(C(F)(F)F)N=C(N2CCOCC2)O1`, the GI50 with SW-620, with MOLT-4, in the test on SK-OV-3, in the test with SF-268, in the test on SK-MEL-2 and in the test on Hs-578T was > 100 µM (inactive) each time. Also, the GI50 in the test on OVCAR-5 was > 100 µM (inactive); in the test with HT-29, > 100 µM (inactive); with CAKI-1, 63.4 µM (inactive); with K562, > 100 µM (inactive); in the test on UACC-62 it was > 100 µM (inactive); in the test on MCF7, > 100 µM (inactive). Further, the GI50 with SNB-75, in the test on SK-MEL-5, in the test on IGROV-1, in the test with RPMI-8226, with U-251 and with OVCAR-3 was > 100 µM (inactive) throughout.
In the case of `COc1ccc(C2CC(c3ccc4ccccc4c3O)=NN2)cc1OC` (stereo not given), the GI50 in the test with NCI-H460 is 34.6 µM (inactive); with SW-620, 39.7 µM (inactive); with MOLT-4 it was 24.7 µM (inactive); with SK-OV-3 it was > 100 µM (inactive); in the test with SF-268, 47.5 µM (inactive); in the test with SK-MEL-2, 52 µM (inactive). In addition, the GI50 is 76.7 µM (inactive) in the test with Hs-578T; > 100 µM (inactive) in the test on OVCAR-5; 47.5 µM (inactive) in the test on HT-29; > 100 µM (inactive) in the test on CAKI-1; 21.7 µM (inactive) in the test on K562; 42.4 µM (inactive) with UACC-62. The GI50 was 32.7 µM (inactive) in the test with MCF7; 56.4 µM (inactive) in the test with SNB-75; 58.5 µM (inactive) in the test on SK-MEL-5; 83.4 µM (inactive) in the test with IGROV-1; 54.5 µM (inactive) with ACHN; 30.4 µM (inactive) in the test with RPMI-8226. Further, the GI50 is 44.1 µM (inactive) in the test on U-251 and 33.1 µM (inactive) in the test with OVCAR-3.
For `COc1c(C)c2nc3ccccc3nc2c2c(O)ccnc12`, the GI50 is 53.5 µM (inactive) with NCI-H460; > 100 µM (inactive) in the test on SW-620; > 100 µM (inactive) with MOLT-4; 75.7 µM (inactive) with SK-OV-3; 68.7 µM (inactive) with SF-268; > 100 µM (inactive) with SK-MEL-2. The GI50 with Hs-578T is 16 µM (inactive); in the test on OVCAR-5 it was > 100 µM (inactive); in the test with HT-29 it was 69.7 µM (inactive); with CAKI-1, > 100 µM (inactive); in the test on K562, > 100 µM (inactive); with MCF7, > 100 µM (inactive). In addition, the GI50 in the test on SNB-75 was 7.13 µM (inactive); in the test with SK-MEL-5, 35.6 µM (inactive); with IGROV-1, 43.3 µM (inactive); with ACHN, 30.1 µM (inactive); in the test with RPMI-8226, > 100 µM (inactive); with U-251, 54.5 µM (inactive). For the same compound, the GI50 with OVCAR-3 is > 100 µM (inactive).
As to `COc1ccc(C(CC(=O)c2ccc3c(c2)OCO3)c2c(O)oc3ccccc3c2=O)cc1OC` (stereo not given), the GI50 in the test with NCI-H460 is 44.7 µM (inactive); with SW-620, > 100 µM (inactive); in the test with MOLT-4, > 100 µM (inactive); with SK-OV-3, > 100 µM (inactive); in the test with SF-268, > 100 µM (inactive); in the test with SK-MEL-2, > 100 µM (inactive). The GI50 with Hs-578T was 45.8 µM (inactive); with OVCAR-5, > 100 µM (inactive); in the test with HT-29 it was 72.6 µM (inactive); in the test on CAKI-1, > 100 µM (inactive); with K562, 63.5 µM (inactive); in the test on UACC-62, 40.6 µM (inactive). Further, the GI50 is 69.3 µM (inactive) with MCF7; > 100 µM (inactive) in the test with SNB-75; 47 µM (inactive) in the test on SK-MEL-5; > 100 µM (inactive) in the test with IGROV-1; > 100 µM (inactive) in the test on ACHN; 45.1 µM (inactive) in the test on RPMI-8226. Moreover, the values for the GI50 in the test on U-251 and in the test with OVCAR-3 were > 100 µM (inactive) and 82.8 µM (inactive), respectively.
Consider `Cc1cc(S(=O)(=O)Nc2nc(N)nc(N3CCOCC3)n2)c(SCC(=O)O)cc1Cl`, for which the GI50 in the test on NCI-H460, in the test on SW-620, with MOLT-4, in the test with SK-OV-3, in the test on SF-268 and with SK-MEL-2 was > 10 µM (inactive) in each case. Further, the GI50 with Hs-578T, in the test with OVCAR-5, in the test on HT-29, in the test with CAKI-1, in the test with K562 and in the test on MCF7 was > 10 µM (inactive) throughout. In addition, the GI50 in the test with SNB-75, in the test on SK-MEL-5, with IGROV-1, with ACHN, with RPMI-8226 and in the test with U-251 was > 10 µM (inactive) in each case. Also, the GI50 in the test with OVCAR-3 was > 10 µM (inactive).
As to `O=c1cc(N2CCOCC2)n2c(ccc3ccccc32)n1`, the GI50 in the test on SW-620, in the test with MOLT-4, in the test on SK-OV-3, in the test with SF-268, in the test with SK-MEL-2 and in the test with Hs-578T was > 100 µM (inactive) throughout. The GI50 in the test with OVCAR-5, with HT-29, in the test on CAKI-1, in the test with K562, with UACC-62 and in the test with MCF7 was > 100 µM (inactive) throughout. Also, the GI50 in the test with SNB-75, in the test with SK-MEL-5, in the test on IGROV-1, in the test on ACHN, in the test with RPMI-8226 and in the test with U-251 was > 100 µM (inactive) each time. Also, the GI50 with OVCAR-3 is > 100 µM (inactive).
Consider `CCN(CC)CCc1c2c(nc3ccccc13)C(=O)c1cccnc1C2=O`, for which the GI50 in the test on SW-620 was 0.424 µM (active); in the test with MOLT-4, 3.24 µM (inactive); with SK-OV-3, 1.09 µM (active); in the test with SF-268, 2.44 µM (inactive); in the test with SK-MEL-2 it was 2.94 µM (inactive); in the test with Hs-578T it was 4.99 µM (inactive). The GI50 is 4.63 µM (inactive) in the test on OVCAR-5; 3.31 µM (inactive) with HT-29; 2.03 µM (inactive) with CAKI-1; 1.16 µM (inactive) with K562; 1.54 µM (inactive) with UACC-62; 0.345 µM (active) in the test on MCF7. Also, the GI50 with SNB-75 was 5.65 µM (inactive); in the test with SK-MEL-5, 0.209 µM (active); with IGROV-1, 1.74 µM (inactive); in the test with ACHN it was 0.719 µM (active); in the test on RPMI-8226, 1.88 µM (inactive); in the test on U-251, 2.88 µM (inactive). For the same compound, the 50% growth inhibitory concentration (GI50) with OVCAR-3 is 0.055 µM (active).
As to `COc1ccc(NC(S)=Nc2ccccc2)cc1`, the GI50 in the test on NCI-H460, in the test on SW-620, in the test with SK-OV-3, in the test on SF-268, in the test with SK-MEL-2 and with Hs-578T was > 100 µM (inactive) each time. The GI50 in the test with OVCAR-5, in the test on HT-29, in the test with CAKI-1, with K562, in the test with UACC-62 and with MCF7 was > 100 µM (inactive) each time. For the same compound, the GI50 in the test on SNB-75, with SK-MEL-5, in the test on IGROV-1, in the test on ACHN, in the test with RPMI-8226 and with U-251 was > 100 µM (inactive) in each case. Moreover, the GI50 with OVCAR-3 is > 100 µM (inactive).
For `CCC(C)C(NC(=O)C(CCCCN)NC(=O)C(NC(=O)C(CCC(N)=O)NC(=O)C(CCCNC(=N)N)NC(C)=O)C(C)CC)C(=O)NC(Cc1c[nH]c2ccccc12)C(=O)NC(Cc1ccccc1)C(=O)NC(CCC(N)=O)C(=O)NC(CC(N)=O)C(=O)NC(CCCNC(=N)N)C(=O)NC(CCCNC(=N)N)C(=O)NC(CCSC)C(=O)NC(CCCCN)C(=O)NC(Cc1c[nH]c2ccccc12)C(=O)NC(CCCCN)C(=O)NC(CCCCN)C(N)=O` (stereo not given), the GI50 with NCI-H460 is 15.5 µM (inactive); with SW-620 it was > 50 µM (inactive); in the test with MOLT-4, > 50 µM (inactive); in the test on SK-OV-3, 31.7 µM (inactive); in the test on SF-268 it was 45.1 µM (inactive); with SK-MEL-2, > 50 µM (inactive). The GI50 in the test with Hs-578T is > 50 µM (inactive); with OVCAR-5, 11.1 µM (inactive); with HT-29, > 50 µM (inactive); in the test with CAKI-1, 35.5 µM (inactive); in the test with K562, 22.8 µM (inactive); in the test on UACC-62 it was > 50 µM (inactive). For the same compound, the GI50 was 29.8 µM (inactive) with MCF7; 22.5 µM (inactive) in the test with SK-MEL-5; > 50 µM (inactive) in the test with IGROV-1; > 50 µM (inactive) with ACHN; 11.2 µM (inactive) with RPMI-8226; 17.8 µM (inactive) in the test on U-251. The GI50 in the test with OVCAR-3 is 31.1 µM (inactive).
`CN(C(=O)c1ccccc1)C1CCCC(=O)CC1` (stereo not given): the GI50 in the test with NCI-H460, with SW-620, in the test on SK-OV-3, with SF-268, with SK-MEL-2 and in the test with Hs-578T was > 100 µM (inactive) in each case. Also, the GI50 with OVCAR-5, in the test with HT-29, in the test on CAKI-1, with K562, in the test with UACC-62 and in the test on MCF7 was > 100 µM (inactive) each time. In addition, the GI50 with SNB-75, in the test on IGROV-1, in the test on ACHN, in the test on RPMI-8226, with U-251 and with OVCAR-3 was > 100 µM (inactive) in each case.
